From patent US3996359A, “Novel stereoisomeric component A of stereoisomeric mixtures of 2'-unsymmetrical 16,17-methylenedioxy steroid 21-acylates, compositions thereof, and method of treating therewith” (AB Bofors, priority 1972, dated 1976) come the findings set out here.

Some results are limits rather than exact numbers.

In this data set the test system is rats subjected to adrenalectomy (granuloma around implanted cotton wads). Nature of the data set: granulom test (cotton-pellet test) on rats subjected to adrenalectomy: granuloma growth, thymus weight, body weight increase. In kind it is in vivo, rat (Sprague-Dawley). Particulars: for Dose required to obtain 50% inhibition of Granuloma growth: Table 3, adrenalectomized young male Sprague-Dawley rats, topical in implanted cotton wads, day 8; for Dose required to obtain 25% inhibition of Body weight Increase / Dose required to obtain 50% inhibition of Thymus weight: 11520 min. An excerpt: In the following this active stereoisomeric component will always be designated B. As regards the steroids referred to in connection with the present invention the stereoisomeric mixture as well as the individual stereoisomeric components A and B have been investigated with regard to antiinflammatory activity in granulom test on rats subjected to adrenalectomy. The experimental procedure used corresponds largely to that described by G. Engelhardt: Arzneimittel-Forschung, 13, p. 588, 1963. According to this procedure the test substances are applied topically in the implanted cottom wads. It is thereby possible to study the local antiinflammatory effect in granulomas and also systemic effects in the form of retrogression of thymus and inhibition of bodyweight growth.
Young male rats of the Sprague-Dawley strain weighing about 110-130 g were subjected to adrenalectomy under ether narcosis. Two sterilized cottom wads of each about 6 mg were implanted simultaneously subcutaneously on the lateral side of the spinal. After awakening the animals were stored 5 per cage and were supplied with normal food and 1% sodium chloride solution as drinking water. On the eighth test day the animals were sacrificed by ether narcosis. The granuloma formed around the cotton wads were carefully recovered and thymus and body weights were measured. The two granuloma from each animal were dried over night at 80° C and weighed. After subtraction of the initial weight of the cotton wads the weight increase was used as a measure of the granulom growth.
The test substances were used dissolved in ethyl acetate. Under aseptic conditions 0.05 ml of said solutions were injected into each of the cotton wads, whereafter the solvent was allowed to evaporate in the desiccator. Normally 3 concentrations of each test substance with the standard doses 3.3, 30 and 270 γ/animal were investigated. Each test group normally comprised 10 rats. The cotton wads of the control group were injected with only ethyl acetate, but were in other respects treated in the same way. When considering the effects of the test substances the average values of granulom growth, thymus weight and body weight increase day 0-8 were measured in each group in absolute figures and in % of the corresponding figure of the control group. Dose-response curves were drafted and used for estimating the doses giving 50 % reduction of granulom growth and of thymus weight and 25 % decrease of body weight increase.
The following Table 4 discloses the results of the cotton-pellet test hereinbefore described, giving in addition figures for the therapeutic ratios, that is, the ratios of the ED50 for thymus weight inhibition divided by the ED50 for granuloma formation inhibition, and the ED25 for body weight increase inhibition over the ED50 for granuloma formation inhibition. As will be recognized, the higher the number for the therapeutic ratio, the more favorable the therapeutic ratio. […] As will be noted for the table, the therapeutic ratio for thymus over granuloma for the Component A esters is 4.2, 7.1, 4.5, 2.6, 2.2, 1.7, 2.5 and 1.7 times as good as it is for the corresponding Component B ester isomer, whereas the therapeutic ratio for the Component A ester isomer as far as body weight is granuloma 2.7, 3.3, 9.8, 6.4, 2.3, 2.8, 3.3 and 2.8 times as favorable as for the corresponding Component B ester isomer.

Regarding `CCCCC1OC2CC3C4CCC5=CC(=O)C=CC5(C)C4(F)C(O)CC3(C)C2(C(=O)CO)O1` (mixture of isomers) [4 A+B], the “Dose required to obtain 50% inhibition of Granuloma growth” value is listed as < 3 γ/animal. Under “rat, in vivo”, the “Dose required to obtain 25% inhibition of Body weight Increase” value is on record as 170 γ/animal and the “Dose required to obtain 50% inhibition of Thymus weight” value is 70 γ/animal.
`CCCCC(=O)OCC(=O)[C@@]12OC(C)O[C@@H]1C[C@H]1[C@@H]3CCC4=CC(=O)C=C[C@]4(C)[C@@]3(F)[C@@H](O)C[C@@]12C` (single isomer, unassigned) [18 B]: the “Dose required to obtain 50% inhibition of Granuloma growth” value is < 3 γ/animal. For the same molecule, under “rat, in vivo”, the ED25 body weight increase inhibition worked out at 10 µg/animal, the ED50 thymus weight inhibition came to 10 µg/animal, the “Therapeutic ratio body weight/granuloma” value was greater than 3.3 and the Therapeutic ratio thymus/granuloma is given as greater than 3.3. Moreover, under “rat, in vivo”, the “Dose required to obtain 25% inhibition of Body weight Increase” value is on record as 10 γ/animal and the “Dose required to obtain 50% inhibition of Thymus weight” value is given as 10 γ/animal.
As for `CCCC1O[C@@H]2C[C@H]3[C@@H]4CCC5=CC(=O)C=C[C@]5(C)[C@@]4(F)[C@@H](O)C[C@]3(C)[C@]2(C(=O)CO)O1` (single isomer, unassigned) [3 A], the “Dose required to obtain 50% inhibition of Granuloma growth” value is on record as 25 γ/animal. Moreover, where the note is “rat, in vivo”, the “Dose required to obtain 25% inhibition of Body weight Increase” value is on record as > 30 γ/animal and the “Dose required to obtain 50% inhibition of Thymus weight” value was > 30 γ/animal.
On to `CCCC1OC2CC3C4CC(F)C5=CC(=O)C=CC5(C)C4(F)C(O)CC3(C)C2(C(=O)CO)O1` (mixture of isomers) [8 A+B], for which the “Dose required to obtain 50% inhibition of Granuloma growth” value is listed as 5 γ/animal. In addition, where the note is “rat, in vivo”, the “Dose required to obtain 25% inhibition of Body weight Increase” value is on record as 50 γ/animal and the “Dose required to obtain 50% inhibition of Thymus weight” value is 10 γ/animal.
As for `CCCC1O[C@@H]2C[C@H]3[C@@H]4CCC5=CC(=O)C=C[C@]5(C)[C@@]4(F)[C@@H](O)C[C@]3(C)[C@]2(C(=O)COC(=O)c2cc3ccccc3o2)O1` (single isomer, unassigned) [20 B], the “Dose required to obtain 50% inhibition of Granuloma growth” value is on record as < 3 γ/animal. In addition, for the setting “rat, in vivo”, the ED25 body weight increase inhibition is 5 µg/animal, the ED50 thymus weight inhibition is 20 µg/animal, the “Therapeutic ratio body weight/granuloma” value is on record as greater than 1.7 and the Therapeutic ratio thymus/granuloma is recorded as greater than 6.7. Moreover, for the setting “rat, in vivo”, the “Dose required to obtain 25% inhibition of Body weight Increase” value is on record as 5 γ/animal and the “Dose required to obtain 50% inhibition of Thymus weight” value is recorded as 20 γ/animal.
`CCCC1O[C@@H]2C[C@H]3[C@@H]4CCC5=CC(=O)C=C[C@]5(C)[C@H]4[C@@H](O)C[C@]3(C)[C@]2(C(=O)COC(C)=O)O1` (single isomer, unassigned) [27 B]: the “Dose required to obtain 50% inhibition of Granuloma growth” value is recorded as < 3 γ/animal. In addition, for the setting “rat, in vivo”, the ED25 body weight increase inhibition was found to be 35 µg/animal, the ED50 thymus weight inhibition was 60 µg/animal, the “Therapeutic ratio body weight/granuloma” value is greater than 11.7 and the Therapeutic ratio thymus/granuloma is listed as greater than 20.0. Under “rat, in vivo”, the “Dose required to obtain 25% inhibition of Body weight Increase” value is reported as 35 γ/animal and the “Dose required to obtain 50% inhibition of Thymus weight” value is 60 γ/animal.
On to `CC1(C)O[C@@H]2C[C@H]3[C@@H]4C[C@H](F)C5=CC(=O)C=C[C@]5(C)[C@@]4(F)[C@@H](O)C[C@]3(C)[C@]2(C(=O)CO)O1` [Fluocinolone acetonide, reference compound], for which the “Dose required to obtain 50% inhibition of Granuloma growth” value was ~50 γ/animal. Also, for the setting “rat, in vivo”, the “decrease of body weight growth at the dose giving 50% inhibition of granulom growth” value is reported as “heavy decrease”, the “decrease of thymus weight at the dose giving 50% inhibition of granulom growth” value is on record as “heavy decrease”, the “Dose required to obtain 25% inhibition of Body weight Increase” value was 20 γ/animal and the “Dose required to obtain 50% inhibition of Thymus weight” value is 14 γ/animal.
Turning to `CCCCC(=O)OCC(=O)[C@@]12OC(CCC)O[C@@H]1C[C@H]1[C@@H]3CCC4=CC(=O)C=C[C@]4(C)[C@@]3(F)[C@@H](O)C[C@@]12C` (single isomer, unassigned) [22 B], the “Dose required to obtain 50% inhibition of Granuloma growth” value is reported as < 3 γ/animal. Besides, for the setting “rat, in vivo”, the ED25 body weight increase inhibition was found to be 3 µg/animal, the ED50 thymus weight inhibition was determined as 35 µg/animal, the “Therapeutic ratio body weight/granuloma” value is reported as greater than 1.7 and the Therapeutic ratio thymus/granuloma is recorded as greater than 11.7. Where the note is “rat, in vivo”, the “Dose required to obtain 25% inhibition of Body weight Increase” value is listed as 5 γ/animal and the “Dose required to obtain 50% inhibition of Thymus weight” value is recorded as 35 γ/animal.
For `CCCC1O[C@@H]2C[C@H]3[C@@H]4CCC5=CC(=O)C=C[C@]5(C)[C@@]4(F)[C@@H](O)C[C@]3(C)[C@]2(C(=O)COC(=O)c2cc3ccccc3o2)O1` (single isomer, unassigned) [20 A], the “Dose required to obtain 50% inhibition of Granuloma growth” value is < 3 γ/animal. For the same molecule, for the setting “rat, in vivo”, the ED25 body weight increase inhibition is 50 µg/animal, the ED50 thymus weight inhibition stood at 90 µg/animal, the “Therapeutic ratio body weight/granuloma” value is greater than 16.7 and the Therapeutic ratio thymus/granuloma is greater than 30.0. For the same molecule, where the note is “rat, in vivo”, the “Dose required to obtain 25% inhibition of Body weight Increase” value is 50 γ/animal and the “Dose required to obtain 50% inhibition of Thymus weight” value is given as 90 γ/animal.
As to `CCCC1OC2CC3C4CC(F)C5=CC(=O)C=CC5(C)C4(F)C(O)CC3(C)C2(C(=O)COC(=O)c2cc3ccccc3o2)O1` (mixture of isomers) [25 A+B], the “Dose required to obtain 50% inhibition of Granuloma growth” value is given as < 3 γ/animal. Moreover, under “rat, in vivo”, the “Dose required to obtain 25% inhibition of Body weight Increase” value is 10 γ/animal and the “Dose required to obtain 50% inhibition of Thymus weight” value is listed as 10 γ/animal.
Take `CCCC1OC2CC3C4CCC5=CC(=O)C=CC5(C)C4C(O)CC3(C)C2(C(=O)COC(C)=O)O1` (mixture of isomers) [27 A+B]: the “Dose required to obtain 50% inhibition of Granuloma growth” value was < 3 γ/animal. In addition, for the setting “rat, in vivo”, the “Dose required to obtain 25% inhibition of Body weight Increase” value is 40 γ/animal and the “Dose required to obtain 50% inhibition of Thymus weight” value is listed as 60 γ/animal.
For the molecule `CCCC1O[C@@H]2C[C@H]3[C@@H]4CCC5=CC(=O)C=C[C@]5(C)[C@@]4(F)[C@@H](O)C[C@]3(C)[C@]2(C(=O)CO)O1` (single isomer, unassigned) [3 B], the “Dose required to obtain 50% inhibition of Granuloma growth” value is on record as 3 γ/animal. Also, where the note is “rat, in vivo”, the “Dose required to obtain 25% inhibition of Body weight Increase” value is on record as 100 γ/animal and the “Dose required to obtain 50% inhibition of Thymus weight” value is listed as 17 γ/animal.
With `CCCC1O[C@@H]2C[C@H]3[C@@H]4CCC5=CC(=O)C=C[C@]5(C)[C@@]4(F)[C@@H](O)C[C@]3(C)[C@]2(C(=O)COC(=O)c2cccnc2)O1` (single isomer, unassigned) [21 A], the “Dose required to obtain 50% inhibition of Granuloma growth” value is recorded as < 3 γ/animal. In addition, for the setting “rat, in vivo”, the “Dose required to obtain 25% inhibition of Body weight Increase” value is on record as 70 γ/animal and the “Dose required to obtain 50% inhibition of Thymus weight” value was 70 γ/animal.
Take `CCCCCC1OC2CC3C4CCC5=CC(=O)C=CC5(C)C4(F)C(O)CC3(C)C2(C(=O)CO)O1` (mixture of isomers) [5 A+B]: the “Dose required to obtain 50% inhibition of Granuloma growth” value is 17 γ/animal. For the setting “rat, in vivo”, the “Dose required to obtain 25% inhibition of Body weight Increase” value is > 270 γ/animal and the “Dose required to obtain 50% inhibition of Thymus weight” value was 130 γ/animal.
The like results for `CCCC1O[C@@H]2C[C@H]3[C@@H]4CCC5=CC(=O)C=C[C@]5(C)[C@@]4(F)[C@@H](O)C[C@]3(C)[C@]2(C(=O)COC(=O)c2cccnc2)O1` (single isomer, unassigned) [21 B] were, in that order, < 3 γ/animal, 5 γ/animal and 10 γ/animal.
The like results for `CCCCCC1O[C@@H]2C[C@H]3[C@@H]4CCC5=CC(=O)C=C[C@]5(C)[C@@]4(F)[C@@H](O)C[C@]3(C)[C@]2(C(=O)CO)O1` (single isomer, unassigned) [5 A] were, in that order, 30 γ/animal, > 270 γ/animal and 90 γ/animal.
Regarding `CCC1O[C@@H]2C[C@H]3[C@@H]4CCC5=CC(=O)C=C[C@]5(C)[C@@]4(F)[C@@H](O)C[C@]3(C)[C@]2(C(=O)CO)O1` (single isomer, unassigned) [2 A], the “Dose required to obtain 50% inhibition of Granuloma growth” value is on record as 25 γ/animal. Moreover, for the setting “rat, in vivo”, the “Dose required to obtain 25% inhibition of Body weight Increase” value is listed as 90 γ/animal and the “Dose required to obtain 50% inhibition of Thymus weight” value is recorded as 130 γ/animal.
